Reference: publication PMC9228412, “Synthesis and Activity of Triazole-Adenosine Analogs as Protein Arginine Methyltransferase 5 Inhibitors” (Molecules, 2022)
Like-named read-outs stand apart in the source and are kept apart here.

Legend:
PRMT5 [1] = details: cited from earlier work
[2] = set-up: method as in PMID 25915199; details: cited from earlier work
PRMT1 = PRMT1 (Homo sapiens, UniProt Q99873); test: scintillation proximity assay (SPA) of PRMT1 methyltransferase activity; format: biochemical; details: for remaining activity at 10 µM: 0.5 h, remaining activity of the enzyme, single point SPA test, inhibitor 10 μM, read-out: Relative Activity of PRMT1 at 10 μM; for IC50: SPA, concentration-dependent, read-out: IC50 PRMT1 (converted)
PRMT1, sequence (Q99873 whole entry, species assumed): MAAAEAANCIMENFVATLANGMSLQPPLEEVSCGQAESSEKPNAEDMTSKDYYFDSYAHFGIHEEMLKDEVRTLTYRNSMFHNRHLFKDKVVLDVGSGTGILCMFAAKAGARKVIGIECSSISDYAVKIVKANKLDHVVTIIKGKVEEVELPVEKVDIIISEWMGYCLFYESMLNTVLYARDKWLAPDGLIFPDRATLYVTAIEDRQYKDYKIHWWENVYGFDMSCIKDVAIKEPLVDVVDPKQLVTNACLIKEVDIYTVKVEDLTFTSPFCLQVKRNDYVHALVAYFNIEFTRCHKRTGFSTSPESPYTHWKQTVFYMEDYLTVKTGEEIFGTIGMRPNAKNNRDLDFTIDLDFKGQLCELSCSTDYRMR
Method: (§1) The methyltransferase activities of PRMT5 and PRMT1 in the absence and presence of the synthetic inhibitors were measured by using the scintillation proximity assay (SPA) protocol (Table 1). In the initial test, the inhibitor concentration was set at 10 μM. H4(1–20)K20biotin [Ac-[…](biotin)-NH2] was used as the peptide substrate, at a final concentration of 0.5 μM. ^3H-SAM was used as the methyl donor at 0.5 μM. SAH was used as a control inhibitor. […] Analysis of the biochemical activity results against PRMT5 disclosed a few interesting structure–activity relationship (SAR) trends. […] If the hydroxyl group of 3 was changed to an amine (6), the potency was improved; however, the selectivity was abolished. Generally, compounds that contained positive charges (6, 20, 21, 22, 24) near the triazole ring had further improved potencies.
Inhibitor was dissolved in water to create a 10 mM stock concentration. This was then diluted in buffer (50 mM HEPES pH 8, 10 mM NaCl, 0.5 mM EDTA, 0.5 mM DTT in H2O) to create a series of working concentrations centered around an anticipated IC50. [H]^3-SAM and substrate were diluted together in buffer to working concentrations of […], respectively. To each well in a 96-well plate, 6 μL of the inhibitor solution was added, with negative and positive controls receiving buffer. In total, 6 μL of the [H]^3-SAM/substrate solution was then added to each well. The enzyme was then diluted in buffer to a working concentration of 0.83 μM, and 18 μL was added to each well, with negative controls receiving 18 μL of buffer. The plate was covered, and the reaction was allowed to run for 30 min and was then quenched with the addition of 30 μL of 100% iPrOH followed by 60 μL of 50% iPrOH in H2O. In total, 10 μL of 20 mg/mL streptavidin-coated scintillant beads were added and the plate was read using a MicroBeta (Perkin Elmer, Waltham, MA, USA) plate reader. The CPM counts in the absence of an inhibitor for each data set were considered as 100% activity. In the absence of the enzyme and inhibitor, the CPM counts in each data set were defined as background (0%).

PRMT5 [3] = target: T1, PRMT5 (Homo sapiens, UniProt O14744); test: scintillation proximity assay (SPA) of PRMT5 methyltransferase activity; format: biochemical; details: for remaining activity at 10 µM: 0.5 h, remaining activity of the enzyme, single point SPA test, inhibitor 10 μM, read-out: Relative Activity of PRMT5 at 10 μM; for remaining activity at 10 µM / IC50: 0.5 μM H4(1–20)K20biotin, 0.5 μM 3H-SAM; for IC50: SPA, concentration-dependent, read-out: IC50 PRMT5 (converted)
T1 construct: His-tag; made in house; host or cells: Sf9 insect cells (Bac-to-Bac baculovirus)
T1 sequence (O14744 whole entry): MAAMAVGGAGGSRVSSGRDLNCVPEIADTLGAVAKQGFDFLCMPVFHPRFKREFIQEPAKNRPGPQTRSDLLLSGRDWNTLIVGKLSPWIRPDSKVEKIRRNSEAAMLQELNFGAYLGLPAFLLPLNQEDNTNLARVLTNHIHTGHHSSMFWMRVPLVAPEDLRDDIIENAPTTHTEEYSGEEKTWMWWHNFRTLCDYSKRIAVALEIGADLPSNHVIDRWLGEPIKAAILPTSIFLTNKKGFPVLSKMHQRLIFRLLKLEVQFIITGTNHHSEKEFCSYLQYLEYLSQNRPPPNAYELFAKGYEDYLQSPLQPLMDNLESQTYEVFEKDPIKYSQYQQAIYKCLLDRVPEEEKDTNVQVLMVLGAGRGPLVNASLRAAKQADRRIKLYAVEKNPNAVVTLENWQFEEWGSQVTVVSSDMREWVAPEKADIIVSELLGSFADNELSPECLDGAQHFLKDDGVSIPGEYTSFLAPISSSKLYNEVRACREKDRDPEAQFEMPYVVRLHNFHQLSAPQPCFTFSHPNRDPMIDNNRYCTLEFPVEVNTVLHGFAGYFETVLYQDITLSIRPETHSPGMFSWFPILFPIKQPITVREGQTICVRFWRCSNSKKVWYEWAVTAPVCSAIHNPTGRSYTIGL
T1 sequence (Q9BQA1 whole entry partner): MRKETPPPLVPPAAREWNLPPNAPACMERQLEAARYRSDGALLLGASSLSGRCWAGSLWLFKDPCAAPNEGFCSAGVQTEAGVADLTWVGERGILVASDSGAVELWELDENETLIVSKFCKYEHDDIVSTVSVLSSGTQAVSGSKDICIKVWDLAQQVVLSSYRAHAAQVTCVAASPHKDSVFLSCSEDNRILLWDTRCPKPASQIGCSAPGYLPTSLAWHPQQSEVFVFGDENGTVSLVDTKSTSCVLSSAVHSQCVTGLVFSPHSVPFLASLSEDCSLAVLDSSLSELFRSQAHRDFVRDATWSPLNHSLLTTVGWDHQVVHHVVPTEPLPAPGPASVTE
Method: as §1
Human recombinant His-tag PRMT5 was co-expressed with His-tag MEP50 using the Bac-to-Bac baculovirus expression system (Invitrogen, Life Technologies, Carlsbad, CA, USA) as previously described. Briefly, pFB-LIC-Bse-PRMT5 and pFB-LIC-Bse-MEP50 were heat shock transformed in the DH10Bac E. coli to obtain the recombinant bacmids, and the bacmids were extracted using the PureLink HiPure Plasmid Miniprep Kit (Invitrogen, Thermo Scientific, Carlsbad, CA, USA). The purity and concentration of the plasmid were measured by a Nanodrop. Sf9 cells were cultured in Sf-900 II SFM medium until the cell density reached 1.5 × 10^6 cells/mL and cell viability was more than 95%. Cells were plated in a 6-well tissue culture plate at a density of 4 × 10^5 cells/mL per well. In total, 2 µg of PRMT5 and MEP50 recombinant bacmid were transfected into each well of cells. After 5 h of transfection, the transfection medium was replaced by 2 mL of Sf-900 II SFM + 100 U P/S per well. The medium was collected and centrifuged at 1000 rpm for 5 min to obtain the supernatant P1 viral stock after 7 days of inoculation at 27.5 °C. To obtain a higher titer of viral stock, P1 viral stock was amplified in a 6-well tissue culture plate containing 2 × 10^6 cells per well. In total, 0.1 MOI of P1 virus stock was added into each well. After 7 days of incubation at 27.5 °C, the cell medium was centrifuged at 1000 rpm for 5 min to obtain the P2 viral stock in the supernatant. The Baculovirus plaque assay was performed to determine the viral titer concentration; the target concentration range was 1 × 10^7–1 × 10^8 IFU/mL.
For the expression of PRMT5 and MEP50, Sf9 insect cells were cultured in suspension at 27.5 °C at a speed of 130 rpm in Expression Systems ESF 921 medium with 100 U P/S. In total, 200 mL of Sf9 cell culture was inoculated with PRMT5 and MEP50 P2 viral stocks when the cell density reached 1.5 × 10^6 cells/mL. After incubation for 72 h at 27.5 °C, the cells were harvested and centrifuged. PRMT5 and MEP50 protein were collected in the cell pellet for further purification. Cell pellets were disrupted twice at 100 psi in 25 mL of cell lysis buffer (50 mM Tris pH 8, 300 mM NaCl, 10% glycerol, 0.1% Triton X-100, 1 mM PMSF). Before the Ni-NTA purification, 10 mL of Ni-NTA resin (EMD Millipore, Burlington, MA, USA) was loaded into a 50 mL column and equilibrated with equilibration buffer (50 mM Tris pH 8, 250 mM NaCl, 30 mM Imidazole, 10% glycerol, 1 mM TCEP, 1 mM PMSF). After 60 min of cell lysate centrifugation at 4 °C at 18,000 rpm, the cell lysate supernatant was incubated with the equilibrated nickel resin. The resin was washed with equilibration buffer and protein was eluted with elution buffer (50 mM Tris pH 8, 250 mM NaCl, 300 mM Imidazole, 10% glycerol, 1 mM TCEP, 1 mM PMSF). For the dialysis of protein, elution samples were loaded into a 10,000 MWCO SnakeSkin (Thermo Scientific, Waltham, MA, USA) dialysis bag in the storage buffer (50 mM Tris pH 8, 250 mM NaCl, 10% glycerol, 1 mM TCEP). […]

[4] = system: 29 other human methyltransferases; set-up: method as in PMID 25893041; details: cited from earlier work
BCR-ABL-driven CML = system: BCR-ABL-driven CML; set-up: method as in PMID 27643437; details: murine model of BCR-ABL-driven CML; cited from earlier work

remaining activity at 10 µM (PRMT1) [%]	IC50 (PRMT1) [µM]	remaining activity at 10 µM (PRMT5 [3]) [%]	IC50 (PRMT5 [3]) [µM]	Compound	further results
				CCn1c2ccccc2c2cc(CNCc3ccccn3)ccc21 [CMP5]	potency (PRMT5 [1]): 50 µM
				Nc1nc2cc(CC[C@H]3C[C@@H](n4ccc5c(N)ncnc54)[C@H](O)[C@@H]3O)ccc2cc1Br [JNJ-64619178]	IC50 (PRMT5 [1]; bisubstrate inhibitor): 0.00015 µM
				OC(COc1cccc(CNC2CCCC2)c1)CN1CCc2ccccc2C1 (centres unmarked) [EPZ007345]	potency (PRMT5 [1]): 0.326 µM; in vitro clearance [2]: poor
111 ± 5.5	43.5	26 ± 0.45	0.88	CC(C)[C@H](N)C(=O)OCc1cn(C[C@H]2O[C@@H](n3cnc4c(N)ncnc43)[C@H](O)[C@@H]2O)nn1 [Compound 20, (1-(((2R,3S,4R,5R)-5-(6-amino-9H-purin-9-yl)-3,4-dihydroxytetrahydrofuran-2-yl)methyl)-1H-1,2,3-triazol-4-yl)methyl L-valinate]	selectivity for PRMT5 over PRMT1 (PRMT5 [3]; ratio of IC50 values): approximately 49 fold
101 ± 10		80 ± 9.5		Nc1ncnc2c1ncn2[C@@H]1O[C@H](Cn2cc(CNC(=O)OCc3ccccc3)nn2)[C@@H](O)[C@H]1O [Compound 16]	
	> 1000		7.7	CC(C)(C)c1cn(C[C@H]2O[C@@H](n3cnc4c(N)ncnc43)[C@H](O)[C@@H]2O)nn1 [Compound 8, (2R,3R,4S,5R)-2-(6-amino-9H-purin-9-yl)-5-((4-(tert-butyl)-1H-1,2,3-triazol-1-yl)methyl)tetrahydrofuran-3,4-diol]	
				CCNC(=O)NCCSC[C@H]1O[C@@H](n2cnc3c(N)ncnc32)[C@H](O)[C@@H]1O [DS-437]	IC50 (PRMT5 [1]; dual PRMT5/PRMT7 inhibitor): 6 µM; activity towards 29 other human methyltransferases [4]: inactive
	> 1000		195	Nc1ncnc2c1ncn2[C@@H]1O[C@H](Cn2cc(CCO)nn2)[C@@H](O)[C@H]1O [Compound 5, (2R,3R,4S,5R)-2-(6-amino-9H-purin-9-yl)-5-((4-(2-hydroxyethyl)-1H-1,2,3-triazol-1-yl)methyl)tetrahydrofuran-3,4-diol]	
96.3 ± 8		61 ± 8	1.2	NCc1cn(C[C@H]2O[C@@H](n3cnc4c(N)ncnc43)[C@H](O)[C@@H]2O)nn1 [Compound 6, (2R,3R,4S,5R)-2-(6-amino-9H-purin-9-yl)-5-((4-(aminomethyl)-1H-1,2,3-triazol-1-yl)methyl)tetrahydrofuran-3,4-diol]	
				CCn1c2ccccc2c2cc(CNC3CCCc4ccccc43)ccc21 (centres unmarked) [PJ-68]	survival (BCR-ABL-driven CML): significant increase in survival
91.8 ± 16		70 ± 5.6		Nc1ncnc2c1ncn2[C@@H]1O[C@H](Cn2cc(CNC(=O)Nc3ccc(Cl)cc3)nn2)[C@@H](O)[C@H]1O [Compound 23]	
84 ± 55		32 ± 3.3		Cc1cccc(NC(=O)CNCc2cn(C[C@H]3O[C@@H](n4cnc5c(N)ncnc54)[C@H](O)[C@@H]3O)nn2)c1 [Compound 21, 2-(((1-(((2R,3S,4R,5R)-5-(6-amino-9H-purin-9-yl)-3,4-dihydroxytetrahydrofuran-2-yl)methyl)-1H-1,2,3-triazol-4-yl)methyl)amino)-N-(m-tolyl)acetamide]	
99.1 ± 13		72 ± 9.6		CC(C)(C)OC(=O)NCC(=O)NCc1cn(C[C@H]2O[C@@H](n3cnc4c(N)ncnc43)[C@H](O)[C@@H]2O)nn1 [Compound 25]	
94.2 ± 2.2	130	30 ± 1.7	1.3	COC(=O)c1ccc(CNCc2cn(C[C@H]3O[C@@H](n4cnc5c(N)ncnc54)[C@H](O)[C@@H]3O)nn2)cc1 [Compound 22, Methyl 4-((((1-(((2R,3S,4R,5R)-5-(6-amino-9H-purin-9-yl)-3,4-dihydroxytetrahydrofuran-2-yl)methyl)-1H-1,2,3-triazol-4-yl)methyl)amino)methyl)benzoate]	
91.2 ± 4.7		56 ± 6.4		Nc1ncnc2c1ncn2[C@@H]1O[C@H](Cn2cc(C[C@H](NC(=O)OCC3c4ccccc4-c4ccccc43)C(=O)O)nn2)[C@@H](O)[C@H]1O [Compound 18, (S)-2-((((9H-fluoren-9-yl)methoxy)carbonyl)amino)-3-(1-(((2R,3S,4R,5R)-5-(6-amino-9H-purin-9-yl)-3,4-dihydroxytetrahydrofuran-2-yl)methyl)-1H-1,2,3-triazol-4-yl)propanoic acid]	

Compound	remaining activity at 10 µM (PRMT1) [%]	IC50 (PRMT1) [µM]	remaining activity at 10 µM (PRMT5 [3]) [%]	IC50 (PRMT5 [3]) [µM]	further results
C[Si](C)(C)c1cn(C[C@H]2O[C@@H](n3cnc4c(N)ncnc43)[C@H](O)[C@@H]2O)nn1 [Compound 7, (2R,3R,4S,5R)-2-(6-amino-9H-purin-9-yl)-5-((4-(trimethylsilyl)-1H-1,2,3-triazol-1-yl)methyl)tetrahydrofuran-3,4-diol]		> 1000		8.3	
